In patent publication US20230113037A1 (Bayer Aktiengesellschaft, priority 2019, published 2023):

These compounds were tested against T1, AHR (Mus musculus, UniProt P30561) (assay: In vitro assay 3: antagonism in mouse cell line (AHR transactivation, firefly luciferase reporter, kynurenic acid prestimulated)). Settings: Hepa 1c1c7 cells, 200 μM kynurenic acid, 20 hours, firefly luciferase reporter, read-out: AHR Antagonism Mouse IC50.
T1 sequence (P30561 1-848 P471L/N533S/M589L): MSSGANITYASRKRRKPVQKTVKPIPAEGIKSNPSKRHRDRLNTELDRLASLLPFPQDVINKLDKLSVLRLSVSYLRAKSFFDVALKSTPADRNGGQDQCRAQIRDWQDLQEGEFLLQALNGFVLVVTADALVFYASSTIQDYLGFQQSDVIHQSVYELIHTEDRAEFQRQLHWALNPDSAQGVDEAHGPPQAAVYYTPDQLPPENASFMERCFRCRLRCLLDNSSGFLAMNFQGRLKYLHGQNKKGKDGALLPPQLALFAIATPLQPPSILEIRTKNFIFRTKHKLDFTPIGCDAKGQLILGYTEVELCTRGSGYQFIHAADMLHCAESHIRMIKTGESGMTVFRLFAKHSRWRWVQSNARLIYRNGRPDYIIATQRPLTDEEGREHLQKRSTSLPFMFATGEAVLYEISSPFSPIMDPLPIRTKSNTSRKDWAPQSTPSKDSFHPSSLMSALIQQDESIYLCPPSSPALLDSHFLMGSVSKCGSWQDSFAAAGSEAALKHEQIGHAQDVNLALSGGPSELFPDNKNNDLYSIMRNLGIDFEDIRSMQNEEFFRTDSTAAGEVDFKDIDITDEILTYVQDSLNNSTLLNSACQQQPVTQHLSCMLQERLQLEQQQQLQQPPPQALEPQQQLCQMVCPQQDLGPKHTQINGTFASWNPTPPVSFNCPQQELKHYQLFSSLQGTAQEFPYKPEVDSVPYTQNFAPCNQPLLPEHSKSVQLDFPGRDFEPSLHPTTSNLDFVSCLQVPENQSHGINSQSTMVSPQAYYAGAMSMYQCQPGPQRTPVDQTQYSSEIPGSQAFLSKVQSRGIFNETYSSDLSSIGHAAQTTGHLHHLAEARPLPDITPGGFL
Type: cell-based
Method: Examples were tested in selected biological assays one or more times. When tested more than once, data are reported as either average values or as median values, wherein • the average value, also referred to as the arithmetic mean value, represents the sum of the values obtained divided by the number of times tested, and • the median value represents the middle number of the group of values when ranked in ascending or descending order. If the number of values in the data set is odd, the median is the middle value. If the number of values in the data set is even, the median is the arithmetic mean of the two middle values.
In addition the cells were stably transfected with an AHR inducible firefly luciferase reporter gene construct that carried AHR-binding sites (DRE) in its promoter. Kynurenic acid is an endogenous AHR activating ligand and was used to prestimulate test cells prior to testing the antagonistic properties of compounds.
As positive inhibition control cells without addition of kynurenic acid were incubated. Normalization was done by positive and negative controls.
Firefly luciferase activity was determined by the SteadyGlo Luciferase Assay System (Promega, #E2550).

Row | IC50 | SMILES
1 | 771 nM | C[C@@H](Nc1nc2c(Br)cccc2c2nc(-c3cnn(C)c3)nn12)C(=O)NCCCN(C)C [Example 810, N^2-[7-bromo-2-(1-methyl-1H-pyrazol-4-yl)[1,2,4]triazolo[1,5-c]quinazolin-5-yl]-N-[3-(dimethylamino)propyl]-D-alaninamide]
2 | 46.8 nM | COc1ccc(-c2nc3c4cccc(N(C)C)c4nc(N[C@@H]4CCCCNC4=O)n3n2)cc1 [Example 829, (3R)-3-{[7-(dimethylamino)-2-(4-methoxyphenyl)[1,2,4]triazolo[1,5-c]quinazolin-5-yl]amino}azepan-2-one]
3 | 0.41 nM | O=C1NCCNC[C@H]1Nc1nc2c(Br)cccc2c2nc(-c3ccc(Cl)cc3)nn12 [Example 977, (6R)-6-{[7-bromo-2-(4-chlorophenyl)[1,2,4]triazolo[1,5-c]quinazolin-5-yl]amino}-1,4-diazepan-5-one]
4 | > 20000 nM | O=C1NCCCC[C@H]1Nc1nc2c(Br)cccc2c2nc(-c3ccc(Cl)cc3)nn12 [Example 830, (3R)-3-{[7-bromo-2-(4-chlorophenyl)[1,2,4]triazolo[1,5-c]quinazolin-5-yl]amino}azepan-2-one]
5 | 4.6 nM | O=C1NCCNC[C@@H]1Nc1nc2c(Cl)cccc2c2nc(-c3ccc(F)cc3)nn12 [Example 964, (6S)-6-{[7-chloro-2-(4-fluorophenyl)[1,2,4]triazolo[1,5-c]quinazolin-5-yl]amino}-1,4-diazepan-5-one]

Same assay, conditions: mouse Hepa 1c1c7 cells, 200 μM kynurenic acid, 20 hours, read-out: AHR Antagonism Mouse IC50

Row | IC50 | SMILES
6 | 13.4 nM | COc1ccc(-c2nc3c4ccccc4nc(NC4CCNC4=O)n3n2)cc1 (centres unmarked) [Example 31, 3-{[2-(4-methoxyphenyl)[1,2,4]triazolo[1,5-c]quinazolin-5-yl]amino}pyrrolidin-2-one]
7 | 25.1 nM | COc1ccc(-c2nc3c4c(Cl)cccc4nc(NC4CNCCNC4=O)n3n2)cc1 (single isomer, unassigned) [Example 297, 6-{[10-chloro-2-(4-methoxyphenyl)[1,2,4]triazolo[1,5-c]quinazolin-5-yl]amino}-1,4-diazepan-5-one]
8 | 32.8 nM | CCCC[C@H](Nc1nc2ccccc2c2nc(-c3ccccc3OC(F)(F)F)nn12)C(N)=O [Example 467, N^2-{2-[2-(trifluoromethoxy)phenyl][1,2,4]triazolo[1,5-c]quinazolin-5-yl}norleucinamide]
9 | 10.6 nM | CC[C@H](Nc1nc2ccccc2c2nc(-c3ccc(Cl)cc3OC(F)F)nn12)C(N)=O [Example 532, (2S)-2-({2-[4-chloro-2-(difluoromethoxy)phenyl][1,2,4]triazolo[1,5-c]quinazolin-5-yl}amino)butanamide]
10 | 5.29 nM | O=C1NCC[C@H]1Nc1nc2ccccc2c2nc(-c3ccc(OC(F)(F)F)cc3)nn12 [Example 327, (3R)-3-({2-[4-(trifluoromethoxy)phenyl][1,2,4]triazolo[1,5-c]quinazolin-5-yl}amino)pyrrolidin-2-one]
11 | 3.87 nM | O=C1NCCC1Nc1nc2ccccc2c2nc(-c3ccc(F)cc3)nn12 (centres unmarked) [Example 73, 3-{[2-(4-fluorophenyl)[1,2,4]triazolo[1,5-c]quinazolin-5-yl]amino}pyrrolidin-2-one]
12 | 0.584 nM | O=C1NCCCC[C@H]1Nc1nc2cccc(Cl)c2c2nc(-c3ccc(F)cc3)nn12 [Example 170, (3R)-3-{[10-chloro-2-(4-fluorophenyl)[1,2,4]triazolo[1,5-c]quinazolin-5-yl]amino}azepan-2-one]
13 | 6.75 nM | O=C1NCCNC[C@H]1Nc1nc2ccccc2c2nc(-c3ccc(F)cc3)nn12 [Example 260, (6R)-6-{[2-(4-fluorophenyl)[1,2,4]triazolo[1,5-c]quinazolin-5-yl]amino}-1,4-diazepan-5-one]
14 | 24.7 nM | Cn1cc(-c2nc3c4cccc(Br)c4nc(N[C@@H]4CNCCNC4=O)n3n2)cn1 [Example 267, (6R)-6-{[7-bromo-2-(1-methyl-1H-pyrazol-4-yl)[1,2,4]triazolo[1,5-c]quinazolin-5-yl]amino}-1,4-diazepan-5-one]
15 | 6.04 nM | O=C1NCCC[C@H]1Nc1nc2ccccc2c2nc(-c3ccc(OC(F)(F)F)cc3)nn12 [Example 332, (3R)-3-({2-[4-(trifluoromethoxy)phenyl][1,2,4]triazolo[1,5-c]quinazolin-5-yl}amino)piperidin-2-one]
16 | 82.1 nM | COc1ccc(-c2nc3c4cc(Br)cc(Br)c4nc(N[C@@H]4CCCCNC4=O)n3n2)cc1 [Example 593, (3R)-3-{[7,9-dibromo-2-(4-methoxyphenyl)[1,2,4]triazolo[1,5-c]quinazolin-5-yl]amino}azepan-2-one]
17 | 4.88 nM | O=C1NCCCC[C@@H]1Nc1nc2ccccc2c2nc(-c3ccccc3)nn12 [Example 1, (3S)-3-[(2-phenyl[1,2,4]triazolo[1,5-c]quinazolin-5-yl)amino]azepan-2-one]
18 | 40.3 nM | COc1ccc(-c2nc3c4c(Cl)cccc4nc(NC4CNCCNC4=O)n3n2)cc1 (centres unmarked) [Example 292, 6-{[10-chloro-2-(4-methoxyphenyl)[1,2,4]triazolo[1,5-c]quinazolin-5-yl]amino}-1,4-diazepan-5-one]
19 | 165 nM | O=C1NCCC[C@H]1Nc1nc2ccccc2c2nc(-c3ccccc3Br)nn12 [Example 454, (3R)-3-{[2-(2-bromophenyl)[1,2,4]triazolo[1,5-c]quinazolin-5-yl]amino}piperidin-2-one]
20 | 57.1 nM | O=C1NCCCC[C@H]1Nc1nc2ccccc2c2nc(-c3cc(Cl)ccc3OC(F)(F)F)nn12 [Example 497, (3R)-3-({2-[5-chloro-2-(trifluoromethoxy)phenyl][1,2,4]triazolo[1,5-c]quinazolin-5-yl}amino)azepan-2-one]
21 | > 20000 nM | Cn1cc(-c2nc3c4cccc(C(F)(F)F)c4nc(NC4C(=O)NCC4(C)C)n3n2)cn1 (single isomer, unassigned; (+)) [Example 730, (+)-4,4-dimethyl-3-{[2-(1-methyl-1H-pyrazol-4-yl)-7-(trifluoromethyl)[1,2,4]triazolo[1,5-c]quinazolin-5-yl]amino}pyrrolidin-2-one]
22 | 1.18 nM | COc1ccc(-c2nc3c4cccc(Cl)c4nc(N[C@@H]4CCCCNC4=O)n3n2)cc1 [Example 553, (3R)-3-{[7-chloro-2-(4-methoxyphenyl)[1,2,4]triazolo[1,5-c]quinazolin-5-yl]amino}azepan-2-one]
23 | 288 nM | COc1ccc(-c2nc3c4c(C)cccc4nc(N[C@@H]4CNCCNC4=O)n3n2)cc1 [Example 290, (6R)-6-{[2-(4-methoxyphenyl)-10-methyl[1,2,4]triazolo[1,5-c]quinazolin-5-yl]amino}-1,4-diazepan-5-one]
24 | 16.7 nM | COc1ccc(-c2nc3c4cccc(Br)c4nc(N[C@H]4CCCCNC4=O)n3n2)cc1 [Example 211, (3S)-3-{[7-bromo-2-(4-methoxyphenyl)[1,2,4]triazolo[1,5-c]quinazolin-5-yl]amino}azepan-2-one]
25 | 0.258 nM | O=C1NCCCC[C@H]1Nc1nc2c(F)cccc2c2nc(-c3ccc(F)cc3)nn12 [Example 139, (3R)-3-{[7-fluoro-2-(4-fluorophenyl)[1,2,4]triazolo[1,5-c]quinazolin-5-yl]amino}azepan-2-one]
26 | 26.9 nM | O=C1NCCNCC1Nc1nc2cccc(Br)c2c2nc(-c3ccc(F)cc3)nn12 (centres unmarked) [Example 282, 6-{[10-bromo-2-(4-fluorophenyl)[1,2,4]triazolo[1,5-c]quinazolin-5-yl]amino}-1,4-diazepan-5-one]
27 | > 20000 nM | Cn1cc(-c2nc3c4ccccc4nc(N[C@H](CO)C(N)=O)n3n2)cn1 [Example 16, N^2-[2-(1-methyl-1H-pyrazol-4-yl)[1,2,4]triazolo[1,5-c]quinazolin-5-yl]-D-serinamide]
28 | 73.1 nM | COc1ccc(-c2nc3c4c(Cl)cccc4nc(NC4CNCCNC4=O)n3n2)cc1 (single isomer, unassigned) [Example 296, 6-{[10-Chloro-2-(4-methoxyphenyl)[1,2,4]triazolo[1,5-c]quinazolin-5-yl]amino}-1,4-diazepan-5-one]
29 | 2.57 nM | O=C1NCCCC[C@H]1Nc1nc2cccc(Br)c2c2nc(-c3ccc(F)cc3)nn12 [Example 166, (3R)-3-{[10-bromo-2-(4-fluorophenyl)[1,2,4]triazolo[1,5-c]quinazolin-5-yl]amino}azepan-2-one]
